Reference: patent US20100035871A1, “BENZOXAZINE DERIVATIVES AND USES THEREOF” (priority 2006, published 2010)
pEC50, pKi: −log10 of the molar value.

Columns and labels:
human 5-HT2C receptor [1] = target: T1, human 5-HT2C receptor (Homo sapiens, UniProt P28335); assay: 5-HT2C receptor binding, [125I]DOI displacement, membranes of transfected CHO cells; details: read-out: 5-HT2C Binding Ki avg
T1 construct: expressed in transfected cells; host or cells: CHO (Chinese Hamster Ovary) cells; membrane preparation
T1 sequence (P28335 33-458): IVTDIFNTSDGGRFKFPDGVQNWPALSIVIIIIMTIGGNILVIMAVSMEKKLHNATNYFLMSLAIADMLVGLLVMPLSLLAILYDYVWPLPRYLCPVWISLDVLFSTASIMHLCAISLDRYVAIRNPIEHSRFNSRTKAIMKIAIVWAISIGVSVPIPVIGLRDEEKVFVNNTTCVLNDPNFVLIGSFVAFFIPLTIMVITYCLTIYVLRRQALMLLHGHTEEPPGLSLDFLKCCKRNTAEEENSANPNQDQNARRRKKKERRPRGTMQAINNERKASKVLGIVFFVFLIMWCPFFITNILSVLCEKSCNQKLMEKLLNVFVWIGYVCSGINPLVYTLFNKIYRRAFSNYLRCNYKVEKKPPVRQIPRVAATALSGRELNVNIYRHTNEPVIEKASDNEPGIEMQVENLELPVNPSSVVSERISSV

human 5-HT2C receptor [2] = target: T1, human 5-HT2C receptor; assay: 5-HT2C receptor-stimulated calcium mobilization (FLIPR) in CHO cells; assay type: cell-based; details: for Emax: CHO, read-out: 5-HT2C Function EMax (%); for pEC50: calcium mobilization, CHO cells, read-out: 5-HT2C Function EC50

Structure (SMILES) | pKi (human 5-HT2C receptor [1]) | Emax (human 5-HT2C receptor [2]) [%] | pEC50 (human 5-HT2C receptor [2])
COc1ccccc1-c1cccc2c1OC(CN)CN2C (racemic) [Example 1, 1-[8-(2-Methoxyphenyl)-4-methyl-3,4-dihydro-2H-1,4-benzoxazin-2-yl]methanamine] | 7.33 | 60 | 7.31
COc1ccc(-c2cccc3c2OC(CN)CN3C)c(C)c1 (racemic) [Example 5, 1-[8-(4-Methoxy-2-methylphenyl)-4-methyl-3,4-dihydro-2H-1,4-benzoxazin-2-yl]methanamine] | 7.98 | 80 | 7.70
COc1ccc(-c2cc(Cl)cc3c2NC(CN)CO3)c(C)c1 (racemic) [Example 27, 1-[7-chloro-5-(4-methoxy-2-methylphenyl)-3,4-dihydro-2H-1,4-benzoxazin-3-yl]methanamine] | 7.27 | 47 | 5.89
NC[C@H]1CNc2cccc(-c3ccccc3C(F)(F)F)c2O1 [Example 47, 1-{(2S)-8-[2-(trifluoromethyl)phenyl]-3,4-dihydro-2H-1,4-benzoxazin-2-yl}methanamine] | 7.46 | 80 | 8.56
NCC1CNc2cccc(-c3ccccc3C(F)(F)F)c2O1 (racemic) [Example 22, 1-{8-[2-(Trifluoromethyl)phenyl]-3,4-dihydro-2H-1,4-benzoxazin-2-yl}methanamine] | 8.14 | 72 | 7.41
CN1CC(CN)Oc2c(-c3ccccc3F)cccc21 (racemic) [Example 7, 1-[8-(2-Fluorophenyl)-4-methyl-3,4-dihydro-2H-1,4-benzoxazin-2-yl]methanamine] | 7.71 | 60 | 7.14
NC[C@@H]1CNc2cccc(-c3ccccc3Cl)c2O1 [Example 40, 1-[(2R)-8-(2-chlorophenyl)-3,4-dihydro-2H-1,4-benzoxazin-2-yl]methanamine] | 7.22 | 45 | 7.35
Cc1cc(Cl)ccc1-c1cccc2c1OC(CN)CN2 (racemic) [Example 20, 1-[8-(4-chloro-2-methylphenyl)-3,4-dihydro-2H-1,4-benzoxazin-2-yl]methanamine] | 7.71 | 75 | 6.55
NCC1COc2cc(Cl)cc(-c3ccccc3Cl)c2N1 (racemic) [Example 36, 1-[7-chloro-5-(2-chlorophenyl)-3,4-dihydro-2H-1,4-benzoxazin-3-yl]methanamine] | 7.33 | 53 | 6.07
CN1CC(CN)Oc2c(-c3ccccc3C(F)(F)F)cccc21 (racemic) [Example 4, 1-{4-Methyl-8-[2-(trifluoromethyl)phenyl]-3,4-dihydro-2H-1,4-benzoxazin-2-yl}methanamine] | 8.07 | 70 | 7.21
CN1CC(CN)Oc2c(-c3ccccc3Cl)cccc21 (racemic) [Example 11, 1-[8-(2-Chlorophenyl)-4-methyl-3,4-dihydro-2H-1,4-benzoxazin-2-yl]methanamine] | 8.04 | 70 | 7.43
